Data set [1] relates to engorged adult female cattle ticks (Boophilus microplus). The data set is described as follows: Boophilus microplus injection test (BOOPMI Inj). It is filed as in vivo. Conditions: application rate 20 μg/animal; injection into abdomen; assessed after 7 days. A digest of the protocol:
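Efficacy is read at 7 days as fertile egg laying (100% = no fertile eggs laid; 0% = all eggs fertile), with eggs of unclear fertility stored until larvae hatch at about 42 days. Five engorged adult females per dose each receive an abdominal injection of 1 μl compound dissolved in DMSO.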

The subject of data set [2] is cattle ticks (Boophilus microplus) Parkhurst strain, SP-resistant. The data set is described as follows: Boophilus microplus dip test (BOOPMI Dip). Conditions: application rate 100 ppm, assessed after 7 days. The format is in vivo. As for the experimental part:
B. Boophilus microplus-dip Test (BOOPMI Dip)
Test animals: cattle ticks (Boophilus microplus) Parkhurst strain, SP-resistant
Solvent: dimethyl sulphoxide
10 mg of active compound are dissolved in 0.5 ml of dimethyl sulphoxide. For the purpose of preparing a suitable formulation, the active compound solution is diluted with water to the concentration desired in each case.
This active compound preparation is pipetted into tubes. 8-10 adult engorged female cattle ticks (Boophilus microplus) are transferred into a further tube with holes. The tube is immersed into the active compound formulation, and all ticks are completely wetted. After the liquid has run out, the ticks are transferred on filter discs into plastic dishes and stored in a climate-controlled room.
The activity is assessed after 7 days by laying of fertile eggs. Eggs whose fertility is not visible from the outside are stored in a climate-controlled cabinet until the larvae hatch after about 42 days. An efficacy of 100% means that none of the ticks has laid any fertile eggs; 0% means that all eggs are fertile.

Data set [3] deals with larvae of the mustard beetle (Phaedon cochleariae). The data set can be described thus: Phaedon cochleariae spray test (PHAECO). It is filed as in vivo. Conditions: Chinese cabbage leaf discs, after 7 days. A digest of the protocol:
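Kill of mustard beetle larvae is read as % mortality 7 days after spraying. Spray liquid: active compound in acetone plus dimethylformamide, brought up with water holding 1000 ppm alkylaryl polyglycol ether emulsifier and diluted further in emulsifier-water.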

In data set [4] the test system is green peach aphid (Myzus persicae). The data set is described as follows: Myzus persicae spray test (MYZUPE). It is filed as in vivo. Conditions: Chinese cabbage leaf discs, after 6 days. The essentials:
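Chinese cabbage leaf discs infested with all aphid stages sprayed with compound in acetone/DMF with alkylaryl polyglycol ether emulsifier in water. Efficacy (% aphids killed; 100% all dead, 0% none) scored after 6 days.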

The test system of data set [5] is greenhouse red spider mite (Tetranychus urticae). The data set is described as follows: Tetranychus urticae spray test, OP-resistant (TETRUR). The format is in vivo. The following applies: bean leaf discs, after 6 days. The essentials: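 Percent kill, scored 6 days post-spray (0% = none dead, 100% = all dead), on Phaseolus vulgaris leaf discs infested with every life stage of the OP-resistant spider mite. Compound dissolved in acetone plus DMF, diluted to test concentration with emulsifier-containing water (1000 ppm).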

Data set [6] deals with L1 larvae of the Australian sheep blowfly (Lucilia cuprina). The data set can be described thus: Lucilia cuprina test (LUCICU). The format is in vivo. The following applies: application rate 100 ppm; after 2 days. A digest of the protocol: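 Percent mortality read at 2 days; 100% = all larvae killed, 0% = none. Test compound, predissolved in DMSO and water-diluted to the wanted level, was mixed into minced horsemeat holding roughly 20 first-instar larvae.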

For data set [7], the system named is adult cat fleas (Ctenocephalides felis). The data set can be described thus: Ctenocephalides felis oral test (CTECFE). It is filed as in vivo. The following applies: application rate 100 ppm in citrated cattle blood; after 2 days. A digest of the protocol: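 Mortality read at 2 days as percent of fleas killed. Compound predissolved in DMSO, diluted into citrated cattle blood and offered to roughly 20 unfed adult C. felis via parafilm membrane feeder.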

Data set [8] shares this test system. The data set is described as follows: Ctenocephalides felis in vitro contact test with adult cat fleas (T1). The following applies: after 48 h. A digest of the protocol:
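Adult cat fleas (Ctenocephalides felis), 5-10 per tube, were exposed to the inner surface of 25 ml test tubes coated with compound in acetone. Tubes were incubated lying flat under ambient conditions. Efficacy was then read by standing tubes upright and knocking the fleas to the floor. Fleas that stayed motionless or moved uncoordinatedly counted as dead or moribund, where 100% means all fleas dead or moribund and 0% means none harmed.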

Data set [9] has as its system caterpillars of the armyworm (Spodoptera frugiperda). The data set is described as follows: Spodoptera frugiperda spray test (SPODFR). The following applies: maize leaf discs, after 7 days. It is filed as in vivo. A digest of the protocol: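 Percent kill read at day 7 on caterpillar-infested maize leaf discs. Discs were first sprayed with aqueous emulsifier-containing (1000 ppm) preparations made from acetone/dimethylformamide solutions, and dried. Scale: 0% none dead, 100% all dead.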

Data set [10] relates to adult houseflies (Musca domestica). The data set is described as follows: Musca domestica test (MUSCDO). The following applies: application rate 100 ppm; after 2 days. The format is in vivo. A digest of the protocol:
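Groups of 10 adult Musca domestica exposed to a sugar-soaked sponge treated with the water-diluted DMSO preparation of compound at the chosen concentration. Percent kill read at day 2, where 0% means no flies killed and 100% all killed.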

Data set [11] deals with adult dog ticks (Rhipicephalus sanguineus). The data set can be described thus: Rhipicephalus sanguineus in vitro contact test with adult brown dog ticks (T2). Conditions: after 48 h. The essentials: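 Acetone solutions coated onto test tube walls and floor, giving 5 μg/cm^2 at 900 ppm. Five to ten adult ticks held per tube in the dark at room temperature for 48 h, then heated at 45-50° C for up to 5 min; efficacy is the percentage of dead or moribund ticks unable to climb away.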

Data set [12] can be described thus: logP determination by HPLC on a reversed-phase column (C18), EEC Directive 79/831 Annex V.A8. The format is physicochemical. Conditions: HPLC on reversed-phase column (C18), acetonitrile/water with formic acid, EEC Directive 79/831 Annex V.A8. A digest of the protocol: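 Per EEC 79/831 Annex V.A8, values derive from HPLC retention at 2.0 ml/min and 55° C on a 50*4.6 C18 column. The 10→95% acetonitrile gradient (0.1%/0.09% formic acid) lasted 4.25 min plus a 1.25 min hold; mass detection was by MSD.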

The results in this text go back to patent publication US9487489B2, “Halogen-substituted pyrazole derivatives as pest-control agents” (BAYER CROPSCIENCE AKTIENGESELLSCHAFT, priority 2013, dated 2016).

As usually defined, the logP is the decadic logarithm of the partition coefficient of the neutral form, usually between octanol and water. Lower therefore signals a more hydrophilic compound.

Turning to `Cn1ccc(NC(=O)c2cc(-c3cnn(-c4c(C(F)(F)F)c(C(F)(F)C(F)(F)F)nn4C)c3)ccc2Cl)n1` [Ic-159], the “efficacy (laying of fertile eggs)” value in data set [1] was found to be 100%; in data set [2], 80%. Also, the efficacy in % in [3] (application rate 500 g/ha), in [4] (application rate 500 g/ha), in data set [5] (application rate 500 g/ha) and in data set [9] (application rate 500 g/ha) was 100% in each case. Further, the “efficacy (kill in %)” value in data set [6], in data set [7] and in data set [10] was 100% throughout. The “efficacy (dead or moribund fleas)” value in [8] (application rate 1 μg/cm^2) and in [8] (application rate 5 μg/cm^2) was 100% each time.
For the molecule `Cc1coc(NC(=O)c2cc(-c3cnn(-c4c(C(F)(F)F)c(C(F)(F)C(F)(F)F)nn4C)c3)ccc2Cl)n1` [Ic-160], the “efficacy (laying of fertile eggs)” value in data set [1] and in data set [2] was 100% in each case. The “efficacy (dead or moribund ticks)” value in [11] (application rate 1 μg/cm^2) and in data set [11] (application rate 5 μg/cm^2) was 100% throughout. Besides, the “efficacy (kill in %)” value in [6], in [7] and in data set [10] was 100% throughout. For the same molecule, the “efficacy (dead or moribund fleas)” value in data set [8] (application rate 1 μg/cm^2) and in data set [8] (application rate 5 μg/cm^2) was 100% each time.
Regarding `C=C=CCNC(=O)c1cc(-c2cnn(-c3c(C(F)(F)F)c(C(F)(F)C(F)(F)F)nn3C)c2)ccc1Cl` [Ic-111], the “efficacy (laying of fertile eggs)” value in data set [2] was determined as 100%. Also, the “efficacy (dead or moribund ticks)” value in [11] (application rate 1 μg/cm^2) and in data set [11] (application rate 5 μg/cm^2) was 100% each time. Moreover, the efficacy in % in data set [3] (application rate 100 g/ha), in data set [4] (application rate 100 g/ha), in data set [5] (application rate 100 g/ha) and in data set [9] (application rate 100 g/ha) was 100% throughout. The molecule further yielded a logP in [12] of 4.04. Besides, the “efficacy (dead or moribund fleas)” value in [8] (application rate 1 μg/cm^2) and in [8] (application rate 5 μg/cm^2) was 100% throughout.
With `Cn1nc(C(F)(F)C(F)(F)F)c(C(F)(F)F)c1-n1cc(-c2ccc(Cl)c(C(=O)NCC(C)(F)F)c2)cn1` [Ic-80], the results for the “efficacy (laying of fertile eggs)” value in [1] and in data set [2] were 100% and 80%, respectively. The efficacy in % is 100% in data set [3] (application rate 100 g/ha), 90% in data set [4] (application rate 100 g/ha), 100% in [5] (application rate 100 g/ha) and 100% in [9] (application rate 100 g/ha). In [12], this molecule registered a logP of 4.05. In addition, the “efficacy (kill in %)” value in data set [6], in [7] and in data set [10] was 100% throughout.
`Cn1nc(C(F)(F)F)c(CF)c1-n1cc(-c2ccc(Cl)c(C(=O)NC3CC3)c2)cn1` [Ic-103]: the figures for the “efficacy (laying of fertile eggs)” value in data set [1] and in data set [2] were 100% and 90%, respectively. Further, the “efficacy (dead or moribund ticks)” value in data set [11] (application rate 1 μg/cm^2) and in [11] (application rate 5 μg/cm^2) was 100% each time. In addition, the efficacy in % in data set [3] (application rate 100 g/ha), in [5] (application rate 100 g/ha) and in [9] (application rate 100 g/ha) was 100% throughout. Also, the logP in data set [12] turned out to be 2.89. The “efficacy (kill in %)” value in [6] is listed as 100%; in data set [7], 100%; in [10], 80%.
Take `CNC(=O)C1(N(C)C(=O)c2cc(-c3cnn(-c4c(C(F)(F)F)c(C(F)(F)C(F)(F)F)nn4C)c3)ccc2Cl)CC1` [Ic-97]: the “efficacy (laying of fertile eggs)” value in data set [1] stood at 100%; in data set [2] it was 90%. In addition, the efficacy in % in data set [3] (application rate 500 g/ha), in data set [4] (application rate 500 g/ha), in data set [5] (application rate 500 g/ha) and in data set [9] (application rate 500 g/ha) was 100% throughout. The molecule also came in with a logP in data set [12] of 3.58. Also, the “efficacy (kill in %)” value in [6], in data set [7] and in data set [10] was 100% in each case. Moreover, the “efficacy (dead or moribund fleas)” value in data set [8] (application rate 1 μg/cm^2) and in data set [8] (application rate 5 μg/cm^2) was 100% in each case.
On to `Cn1nc(C(F)(F)C(F)(F)F)c(C(F)(F)F)c1-n1cc(-c2ccc(Cl)c(C(=O)NCC=CCl)c2)cn1` [Ic-112], for which the “efficacy (laying of fertile eggs)” value in data set [2] is listed as 100%. For the same molecule, the “efficacy (dead or moribund ticks)” value in [11] (application rate 1 μg/cm^2) and in data set [11] (application rate 5 μg/cm^2) was 100% throughout. The efficacy in % in data set [4] (application rate 100 g/ha), in data set [5] (application rate 100 g/ha) and in data set [9] (application rate 100 g/ha) was 100% each time. Also, the logP in data set [12] was 4.13. Moreover, the “efficacy (dead or moribund fleas)” value in data set [8] (application rate 1 μg/cm^2) and in data set [8] (application rate 5 μg/cm^2) was 100% each time.
For the molecule `C#CCNC(=O)c1cc(-c2cnn(-c3c(C(F)(F)F)c(C(F)(F)C(F)(F)F)nn3C)c2)ccc1Cl` [Ic-109], the “efficacy (laying of fertile eggs)” value in [2] was determined as 100%. Moreover, the “efficacy (dead or moribund ticks)” value in data set [11] (application rate 1 μg/cm^2) and in [11] (application rate 5 μg/cm^2) was 100% each time. The efficacy in % in data set [3] (application rate 100 g/ha), in [4] (application rate 100 g/ha), in data set [5] (application rate 100 g/ha) and in data set [9] (application rate 100 g/ha) was 100% in each case. Moreover, in data set [12], the logP is 3.69. Also, the “efficacy (dead or moribund fleas)” value in data set [8] (application rate 1 μg/cm^2) and in data set [8] (application rate 5 μg/cm^2) was 100% each time.
As for `COCCNC(=O)c1cc(-c2cnn(-c3c(C(F)(F)F)c(C(F)(F)C(F)(F)F)nn3C)c2)ccc1Cl` [Ic-139], the “efficacy (laying of fertile eggs)” value in data set [1] and in data set [2] was 100% in each case. The efficacy in % in data set [3] (application rate 500 g/ha), in data set [4] (application rate 500 g/ha), in data set [5] (application rate 500 g/ha) and in data set [9] (application rate 500 g/ha) was 100% throughout. Besides, the “efficacy (kill in %)” value in data set [7] is 100%. Moreover, the “efficacy (dead or moribund fleas)” value in data set [8] (application rate 1 μg/cm^2) and in data set [8] (application rate 5 μg/cm^2) was 100% each time.
Turning to `CC(C)NC(=O)c1cc(-c2cnn(-c3c(C(F)(F)F)c(C(F)(F)C(F)(F)F)nn3C)c2)ccc1Cl` [Ic-113], the “efficacy (laying of fertile eggs)” value in data set [2] worked out at 100%. Further, the “efficacy (dead or moribund ticks)” value in [11] (application rate 1 μg/cm^2) came out at 80%; in data set [11] (application rate 5 μg/cm^2), 100%. The efficacy in % stood at 100% in data set [3] (application rate 100 g/ha), 90% in data set [4] (application rate 100 g/ha), 100% in [5] (application rate 100 g/ha) and 100% in data set [9] (application rate 100 g/ha). In addition, the logP in data set [12] turned out to be 4.01. Also, the “efficacy (dead or moribund fleas)” value in data set [8] (application rate 1 μg/cm^2) and in [8] (application rate 5 μg/cm^2) was 100% throughout.
